Article PMC12123601, “Light-Induced, Lysine-Targeting Irreversible Covalent Inhibition of the Human Oxygen Sensing Hydroxylase Factor Inhibiting HIF (FIH)” (Journal of the American Chemical Society, 2025)

Key:
[1] = test system: 3T3-L1-derived adipocytes; test: Lipid homeostasis in 3T3-L1-derived adipocytes (TG level, Oil Red O staining); format: cell-based
Experimental: (§1) 5 NBA-ZG-2991 sustainably engages with FIH and regulates the expression of FIH-dependent HIF target gene EGLN3 in Hep3B cells. (A) The CETSA assay was carried out with Hep3B cells grown in the presence of NBA-ZG-2291 (50 μM) for 12–48 h after 30 min of light activation (365 nm, 16 W). The intensity of the bands for grayscale analysis was referenced to the starting temperature (37 °C). α-Actinin was the sample loading control. n = 2; mean ± SD. […] (E) Correlation heatmap of the NBA-ZG-2291-treated group and the siFIH group by RNA-sequencing analysis. […] The relative fold change with respect to DMSO treated sample is shown (with normalization to HPRT gene levels). Mean ± SEM; n = 3. (G) TG level of NBA-ZG-2291-treated 3T3-L1-derived adipocytes. Mean ± SEM; n = 3. (H) Representative Oil Red O-stained images of the control, ZG-2291-treated, and NBA-ZG-2291-treated 3T3-L1-derived adipocytes. Scale Bar, 30 μm. P values were analyzed by two-way ANOVA comparing with the vehicle/control group (*, P < 0.05; **, P < 0.01; ***, P < 0.001, ****, P < 0.0001). See Methods (Quantitative PCR Analysis of Gene Expression) for assay details. […]

[2] = test system: EGLN3 expression in FIH knockdown Hep3B cells; test: qRT-PCR of EGLN3 in FIH knockdown (siFIH) Hep3B cells; format: cell-based
Experimental: as §1

[3] = target: FIH (Homo sapiens, UniProt Q9NWT6); test: O-phenylenediamine (OPD) 2OG derivatization turnover assay (remaining 2OG in FIH hydroxylation system); format: biochemical; set-up: Concentration of remaining 2OG: unit: µM
Experimental: To explore whether the covalent inhibitor can effectively and sustainably prevent the hydroxylation process catalyzed by FIH, the inhibitory activities against FIH were evaluated using the fluorescent O-phenylenediamine (OPD) 2OG derivatization turnover assay (Figure S9).
Figure S9. Schematic of the O-phenylenediamine (OPD) fluorescent derivative assay6. The assay monitors depletion of 2OG.
(1 picture or pasted object on this page, not shown here) […]
pET28a vectors encoding for full-length FIH with an N-terminal His6 tag or for FIH (K106A) with an N-terminal His6 tag were purchased from Nanjing Zoonbio Biotechnology. Both the FIHWT and FIHK106A protein were expressed from the respective plasmid in Escherichia coli BL21 at 20 °C for 16 h. E. coli cells were lysed and the lysate were clarified by centrifugation. His6-tagged FIHWT or FIHK106A was purified on a HisTrap affinity column (GE Healthcare) by elution with an imidazole gradient. The final purified proteins were stored in PBS buffer. […]
Ki = I50 / [1 + ([L]50 + [P]0)/Kd] […]
3.2 O-Phenylenediamine (OPD) fluorescent derivative assay
Assays were carried out by mixing 1 mM DTT, 0.6 mg/mL of catalase, 200 μM 2-OG, 50 mM Hepes, 200 μM HIF-1α (788-807), and inhibitors at pH 7.0 to a final volume of 44 μL and incubated at 37 °C for 5 min. At the same time, FIH enzyme and iron (prepared as 200 mM stock in 20 mM HCl and diluted with water) were mixed at room temperature for 3 min. […] The reaction was stopped by the addition of 100 μL of 0.5 M HCl. After adding 50 μL of 10 mg/mL OPD in 0.5 M HCl and heating at 95 °C for 10 min, the derivatization was achieved. Then, 50 μL of the mixture centrifugated for 5 min was made basic by adding 30 μL of 1.25 M NaOH, and then fluorescence was detected by SPARK Multi-Mode Microplate Reader (Tecan). […]
Crystals were cryo -protected using mother liquor supplemented with 25%v/v glycerol before manual loop cryo -cooling in liquid N2.
Data for ligand -bound protein complexes were from single crystals at 100 K using Diamond Light Source (UK) beamlines. The FIH crystal structures were determined by molecular replacement (MR) using the AutoMR (PHASER) subroutine in PHENIX (version 1.18.2) based on the PDB ID: 1H2K crystal structure .

Sequence of FIH (Q9NWT6 whole entry): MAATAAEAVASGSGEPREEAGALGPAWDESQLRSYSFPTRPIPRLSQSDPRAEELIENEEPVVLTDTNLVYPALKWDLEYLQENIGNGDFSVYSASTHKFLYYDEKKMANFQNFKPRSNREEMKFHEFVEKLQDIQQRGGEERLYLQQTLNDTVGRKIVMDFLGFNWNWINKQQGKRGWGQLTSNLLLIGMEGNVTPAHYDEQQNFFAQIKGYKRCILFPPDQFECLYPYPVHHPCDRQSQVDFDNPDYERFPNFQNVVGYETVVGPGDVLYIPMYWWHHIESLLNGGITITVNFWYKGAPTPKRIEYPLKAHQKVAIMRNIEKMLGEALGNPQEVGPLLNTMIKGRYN

O=C(O)CNC(=O)c1ncc(-c2cc(-c3ccc(CO)c([N+](=O)[O-])c3)no2)cc1O [NBA-ZG-2291]
Cellular triglyceride (TG) levels [1]: significantly improved cellular triglyceride levels
Lipid droplet accumulation (Oil Red O staining) ([1]; compared with control cells): reduced lipid droplet accumulation
Effect on EGLN3 expression when FIH was knocked down [2]: no significant effect on EGLN3 expression
Inhibition of FIH hydroxylation activity on the HIF peptide (2OG consumption) ([3]; compared to ZG-2291): more potent and sustained inhibition of FIH hydroxylation activity
Concentration of remaining 2OG ([3]; inhibitor 0.14 μM, incubation 0 min, 200 μM 2-OG at start): 200.0
Concentration of remaining 2OG ([3]; inhibitor 0.14 μM, incubation 15 min): 187.5
Concentration of remaining 2OG ([3]; inhibitor 0.14 μM, incubation 30 min): 184.6
Concentration of remaining 2OG ([3]; inhibitor 0.14 μM, incubation 1 h): 174.8
Concentration of remaining 2OG ([3]; inhibitor 0.14 μM, incubation 4 h): 163.1
Concentration of remaining 2OG ([3]; inhibitor 0.41 μM, incubation 0 min, 200 μM 2-OG at start): 200.0
Concentration of remaining 2OG ([3]; inhibitor 0.41 μM, incubation 15 min): 189.1
Concentration of remaining 2OG ([3]; inhibitor 0.41 μM, incubation 30 min): 188.8
Concentration of remaining 2OG ([3]; inhibitor 0.41 μM, incubation 1 h): 184.6
Concentration of remaining 2OG ([3]; inhibitor 0.41 μM, incubation 4 h): 171.6
Concentration of remaining 2OG ([3]; inhibitor 1.23 μM, incubation 0 min, 200 μM 2-OG at start): 200.0
Concentration of remaining 2OG ([3]; inhibitor 1.23 μM, incubation 15 min): 191.6
Concentration of remaining 2OG ([3]; inhibitor 1.23 μM, incubation 30 min): 190.6
Concentration of remaining 2OG ([3]; inhibitor 1.23 μM, incubation 1 h): 187.9
Concentration of remaining 2OG ([3]; inhibitor 1.23 μM, incubation 4 h): 182.8
Concentration of remaining 2OG ([3]; inhibitor 3.70 μM, incubation 0 min, 200 μM 2-OG at start): 200.0
Concentration of remaining 2OG ([3]; inhibitor 3.70 μM, incubation 15 min): 194.0
Concentration of remaining 2OG ([3]; inhibitor 3.70 μM, incubation 30 min): 193.5
Concentration of remaining 2OG ([3]; inhibitor 3.70 μM, incubation 1 h): 189.6
Concentration of remaining 2OG ([3]; inhibitor 3.70 μM, incubation 4 h): 185.3
Concentration of remaining 2OG ([3]; inhibitor 11.1 μM, incubation 0 min, 200 μM 2-OG at start): 200.0
Concentration of remaining 2OG ([3]; inhibitor 11.1 μM, incubation 15 min): 199.7
Concentration of remaining 2OG ([3]; inhibitor 11.1 μM, incubation 30 min): 198.7
Concentration of remaining 2OG ([3]; inhibitor 11.1 μM, incubation 1 h): 197.8
Concentration of remaining 2OG ([3]; inhibitor 11.1 μM, incubation 4 h): 197.2
Concentration of remaining 2OG ([3]; inhibitor 33.3 μM, incubation 0 min, 200 μM 2-OG at start): 200.0
Concentration of remaining 2OG ([3]; inhibitor 33.3 μM, incubation 15 min): 200.8
Concentration of remaining 2OG ([3]; inhibitor 33.3 μM, incubation 30 min): 198.7
Concentration of remaining 2OG ([3]; inhibitor 33.3 μM, incubation 1 h): 197.6
Concentration of remaining 2OG ([3]; inhibitor 33.3 μM, incubation 4 h): 197.3
Concentration of remaining 2OG ([3]; inhibitor 100 μM, incubation 0 min, 200 μM 2-OG at start): 200.0
Concentration of remaining 2OG ([3]; inhibitor 100 μM, incubation 15 min): 200.1
Concentration of remaining 2OG ([3]; inhibitor 100 μM, incubation 30 min): 199.2
Concentration of remaining 2OG ([3]; inhibitor 100 μM, incubation 1 h): 198.5
Concentration of remaining 2OG ([3]; inhibitor 100 μM, incubation 4 h): 198.3
Concentration of remaining 2OG ([3]; inhibitor 300 μM, incubation 0 min, 200 μM 2-OG at start): 200.0
Concentration of remaining 2OG ([3]; inhibitor 300 μM, incubation 15 min): 201.4
Concentration of remaining 2OG ([3]; inhibitor 300 μM, incubation 30 min): 199.5
Concentration of remaining 2OG ([3]; inhibitor 300 μM, incubation 1 h): 199.2
Concentration of remaining 2OG ([3]; inhibitor 300 μM, incubation 4 h): 198.6
